Results on two compounds are retold here after patent US9707200B2, “Metabolism-improving agent comprising rare fatty acid” (KYOTO UNIVERSITY, priority 2012, dated 2017).

One assay relates to KKAy mouse. As to the kind of experiment: Effect in obesity or diabetes model mouse fed high-fat diet with added fatty acid. It counts as in vivo. Conditions: for body weight: 4 weeks; for body weight / blood glucose level: vs control group. On the procedure:
(1) Using KKAy mouse as obesity or diabetes model mouse, the effect of KetoA, HYA was evaluated. KKAy mice (KKAy/TaJcl, male, 4-week-old, purchased from CLEA Japan, Inc. and individually bred) were preliminarily bred on a commercially available normal diet (ND) for 1 week, divided into 5 groups, and each group was bred on a high-fat diet (HFD) as a basic feed and given a non-addition feed (control group), or a feed added with different amounts of KetoA and HYA for 4 weeks. The KetoA, HYA-added feed was prepared by adding KetoA, HYA to HFD such that the amount to be added was 0.05% (w/w) (0.05% group) or 0.1% (w/w) (0.1% group).
(2) The profile of the body weight and blood glucose level of the KKAy mouse was measured. After the start of the test feed breeding, the oxygen consumption level was measured on day 16-19, an oral glucose loading test was performed on day 24, and the rectal temperature was measured on day 26. The next day of the completion of experimental breeding, the KKAy mouse was dissected, and the organ weight and plasma neutral fat level were measured.

For a further assay, the target named is T1, PPARα (Homo sapiens, UniProt Q07869).
T1 construct: expressed in transfected cells; host or cells: CV-1 (African green monkey kidney)
T1 sequence (Q07869 239-466 limits assumed): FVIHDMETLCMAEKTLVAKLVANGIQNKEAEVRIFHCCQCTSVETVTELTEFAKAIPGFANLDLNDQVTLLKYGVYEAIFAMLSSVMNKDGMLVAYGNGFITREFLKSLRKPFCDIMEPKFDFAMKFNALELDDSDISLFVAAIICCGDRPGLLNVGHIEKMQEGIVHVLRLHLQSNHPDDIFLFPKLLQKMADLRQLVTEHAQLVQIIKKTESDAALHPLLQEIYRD
As to the kind of experiment: PPARα ligand activity, GAL4-PPARα reporter luciferase assay in CV-1 cells. It counts as cell-based. Conditions: 24 hr incubation, KetoA and HYA each at 30 μM, other fatty acids by a similar method. The protocol:
(§1) To evaluate the function of oxo fatty acid and the like, PPARα, γ-activating action was measured first. The measurement was performed in reference to Nobuyuki Takahashi et al., FEES Letters 514 (2002) p. 315-322, “Dual action of isoprenols from herbal medicines on both PPARgamma and PPARalpha in 3T3-L1 adipocytes and HepG2 hepatocytes.”, the section of Materials and Methods “Reporter plasmids and luciferase assays”. To be specific, a plasmid containing DNA encoding a fused protein of PPARα, γ ligand binding region and GAL4 DNA binding region (pM-hPPARα or pM-hPPARγ), a reporter plasmid containing GAL4 binding DNA sequence linked to luciferase (p4xUASg-tk-luc), and internal control (pRL-CMV) to standardize transfection efficiency were introduced into CV-1 cell derived from the kidney of African green monkey. The ligand described below was added to the cells and, after incubation for 24 hr, luciferase activity was measured. As a ligand, KetoA and HYA were each added at 30 μM.
(§2) The concentration of the sample was adjusted with ethanol. Ethanol was used as a negative control, […], and GW7647 (10 nM) and Troglitazone (5 μM) were used as […].

A further assay concerns the target T2, PPARγ (Homo sapiens, UniProt P37231).
T2 construct: expressed in transfected cells; host or cells: CV-1 (African green monkey kidney)
T2 sequence (P37231 238-503 limits assumed): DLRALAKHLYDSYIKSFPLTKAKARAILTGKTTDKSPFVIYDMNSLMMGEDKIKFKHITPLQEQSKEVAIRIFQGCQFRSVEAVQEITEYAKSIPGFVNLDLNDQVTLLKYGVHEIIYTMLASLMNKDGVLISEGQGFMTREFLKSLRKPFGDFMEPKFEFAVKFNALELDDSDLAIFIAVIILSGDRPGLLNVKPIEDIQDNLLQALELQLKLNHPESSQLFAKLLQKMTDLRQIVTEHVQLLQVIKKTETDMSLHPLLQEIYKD
In words: PPARγ ligand activity, GAL4-PPARγ reporter luciferase assay in CV-1 cells. It counts as cell-based. Conditions: 24 hr incubation, KetoA and HYA each at 30 μM, other fatty acids by a similar method. The protocol: as §1, §2

The next assay has as its system HepG2 cells. As to the kind of experiment: Intracellular triacylglycerol accumulation by LXR agonist. Type of assay: cell-based, human. Conditions: 10 nM T0901317 + 60 μM fatty acid, 24 hr. On the procedure: HepG2 cells (2.0×10^5 cells/mL) were cultured in DMEM medium containing 10% FES for 24 hr, and the medium was exchanged with 0.1% BSA-containing DMEM medium containing 10 nM LXR agonist T0901317 (Cayman Chemicals) and 60 μM various fatty acid. After culture for 24 hr, the cells were recovered, and total RNA was extracted using Sepasol reagent (Nacalai Tesque). After DNase treatment, reverse transcription was performed using SuperScriptII (Invitrogen) to give a cDNA solution. Using SYBR Green Mix (Bio-Rad, Richmond, Calif.) and gene-specific primer (Table 1), real-time PCR was performed as follows.
1. Reaction at 96° C., 15 min, 2. reaction at 96° C., 15 sec, 3. reaction at 60° C. for 30 sec, 4. measurement of fluorescence, 5. 2-4 were repeated 40 times, 6. the melting curve was measured from 65° C. to 95° C. at 0.4° C. intervals. As the internal standard, 18S rRNA was used. The genes involved in the fatty acid synthesis as measured were Sterol regulatory element binding protein-1c (SREBP-1c), Stearoyl coenzyme A desaturase-1 (SCD-1), Fatty acid synthase (FAS), and Acetyl CoA carboxylase-1 and -2 (ACC-1, 2). As for the amount of accumulated intracellular TG, the lipid was extracted with chloroform-methanol, and quantified by triglyceride-′E Test Wako (Wako Pure Chemical Industries, Ltd.).

As for `CCCCC/C=C\CC(O)CCCCCCCCC(=O)O` (stereo not drawn) [HYA, 10-hydroxy-cis-12-octadecenoic acid], the body weight result in the assay on KKAy mouse (HFD with 0.05% (w/w) added) is “significant suppression of body weight increase”. Further, the blood glucose level result in the assay with KKAy mouse (added-feed group, amount not specified) is recorded as “tendency toward suppression of blood glucose level increase”. Moreover, the “PPARα agonist activity (relative luciferase activity)” value on PPARα is “PPARα agonist activity”. In addition, the “PPARγ agonist activity (relative luciferase activity)” value on PPARγ is listed as “some PPARγ agonist activity”. For the same compound, the “suppression of intracellular triacylglycerol increase by LXR agonist” value with HepG2 cells is on record as “significantly suppressed”.
With `CCCCC/C=C\CC(=O)CCCCCCCCC(=O)O` [KetoA, 10-oxo-cis-12-octadecenoic acid], the blood glucose level entry in the assay on KKAy mouse (0.05% group, at 4 weeks of test diet) was “tendency toward suppression of blood glucose increase”; in the assay with KKAy mouse (0.1% group, at 4 weeks of test diet), “stronger, significant hypoglycemic action”. In addition, in the assay on KKAy mouse (0.1% group, after 4 weeks), the “intraperitoneal white fat weight” value is listed as “significant decrease”. The “plasma neutral fat level” value in the assay on KKAy mouse (0.1% group, after 4 weeks) is given as “significant decrease”. Further, the body weight result in the assay on KKAy mouse (HFD with 0.05% (w/w) added) is “body weight increase suppression tendency”; in the assay on KKAy mouse (HFD with 0.1% (w/w) added), “significant suppression of body weight increase”. The oxygen consumption level entry in the assay with KKAy mouse (day 16-19, added-feed group vs control group) was “increase in the oxygen consumption level”. The rectal temperature entry with KKAy mouse (day 26, added-feed group vs control group) was “increase in the rectal temperature”. In addition, the “PPARα agonist activity (relative luciferase activity)” value on PPARα is “strong PPARα and γ agonist activity”. The “PPARγ agonist activity (relative luciferase activity)” value at PPARγ is “strong PPARα and γ agonist activity”. Besides, the “suppression of intracellular triacylglycerol increase by LXR agonist” value in the assay on HepG2 cells is reported as “significantly suppressed”.
